From ChEMBL document CHEMBL1140874, “Ligand-based and structure-based virtual screening to identify carbonic anhydrase IX inhibitors” (Bioorg Med Chem, 2009)
pKi: −log10 of the molar value.

Tests used:
Carbonic anhydrase 9 = Carbonic anhydrase 9 (Homo sapiens, UniProt Q16790)
Carbonic anhydrase 2 = Carbonic anhydrase 2 (Homo sapiens, UniProt P00918)
Carbonic anhydrase 1 = Carbonic anhydrase 1 (Homo sapiens, UniProt P00915)
Chain of Carbonic anhydrase 1 (P00915 whole entry): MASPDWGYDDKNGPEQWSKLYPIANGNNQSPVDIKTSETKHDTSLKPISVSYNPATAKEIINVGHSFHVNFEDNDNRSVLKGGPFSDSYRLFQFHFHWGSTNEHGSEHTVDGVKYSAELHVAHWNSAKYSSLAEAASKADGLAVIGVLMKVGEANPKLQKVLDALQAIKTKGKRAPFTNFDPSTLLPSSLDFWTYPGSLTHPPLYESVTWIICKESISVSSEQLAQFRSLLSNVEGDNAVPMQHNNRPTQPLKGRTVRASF

| Structure (SMILES) | pKi (Carbonic anhydrase 9) | pKi (Carbonic anhydrase 2) | pKi (Carbonic anhydrase 1) |
| --- | --- | --- | --- |
| CC1CCN(N(CCCC(=O)Nc2ccc(S(N)(=O)=O)cc2)N2CCC(C)CC2)CC1 | 7.05 | 6.58 | – |
| NS(=O)(=O)Oc1ccc(OS(N)(=O)=O)cc1 | – | 6.19 | – |
| NS(=O)(=O)c1ccc(CCNC(=O)c2sc3ccccc3c2Cl)cc1 | 5.97 | – | – |
| N#Cc1c(N)n(-c2cccc(S(N)(=O)=O)c2)c2nc3ccccc3nc12 | 6.52 | – | – |
| NS(=O)(=O)c1ccc(CCNC(=O)CN2C(=O)c3ccccc3C2=O)cc1 | 6.54 | – | – |
| C=CCn1c(SCC(=O)Nc2ccc(S(N)(=O)=O)cc2)nc2sc3c(c2c1=O)CCCC3 | 5.56 | 6.48 | 4.82 |

Now from value to compound, other results behind:

| pKi (Carbonic anhydrase 9) | pKi (Carbonic anhydrase 2) | Structure (SMILES) | pKi (Carbonic anhydrase 1) |
| --- | --- | --- | --- |
| 5.74 | 5.58 | NS(=O)(=O)c1ccc(CNC(=O)NC2CC2c2ccccc2)cc1 (centres undefined) | – |
| – | 6.42 | NS(=O)(=O)c1ccc(CCNC(=S)Nc2ccc(C(=O)O)cc2)cc1 | – |
| 6.54 | 7.00 | NS(=O)(=O)c1ccc(CNS(=O)(=O)c2ccc(F)cc2)cc1 | – |
